According to publication PMC10046369, “Low-Affinity/High-Selectivity Dopamine Transport Inhibition Sufficient to Rescue Cognitive Functions in the Aging Rat” (Biomolecules, 2023):

Tests used:
Experiment in all cases: biochemical
Set-up in all cases: KINOMEscan competition binding panel, per cent of control
Details in all cases: read-out: %Ctrl @ 2800nM
BRK = molecular target: T1, BRK (Homo sapiens, UniProt Q13882)
T1 construct: gene PTK6
Method in brief: (§1)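 Values are expressed as percent of control, calculated as ((test − positive control)/(negative control − positive control)) × 100, so lower numbers mean stronger hits. Binding was measured by KINOMEscan competition assay in a 450-kinase human panel including disease mutants, using the contractor's validated protocol.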

MEK2 = molecular target: T2, MEK2 (Homo sapiens, UniProt P36507)
T2 construct: gene MAP2K2
Method in brief: as §1

MARK1 = MARK1 (Homo sapiens, UniProt Q9P0L2)
Method in brief: as §1

ABL1-phosphorylated = molecular target: T3, ABL1-phosphorylated (Homo sapiens, UniProt P00519)
T3 construct: phosphorylated
Method in brief: as §1

TESK1 = TESK1 (Homo sapiens, UniProt Q15569)
Method in brief: as §1

LIMK2 = LIMK2 (Homo sapiens, UniProt P53671)
Method in brief: as §1

ERK4 = molecular target: T4, ERK4 (Homo sapiens, UniProt P31152)
T4 construct: gene MAPK4
Method in brief: as §1

PRKR = molecular target: T5, PRKR (Homo sapiens, UniProt P19525)
T5 construct: gene EIF2AK2
Method in brief: as §1

PKAC-beta = molecular target: T6, PKAC-beta (Homo sapiens, UniProt P22694)
T6 construct: gene PRKACB
Method in brief: as §1

ASK2 = molecular target: T7, ASK2 (Homo sapiens, UniProt O95382)
T7 construct: gene MAP3K6
Method in brief: as §1

NLK = NLK (Homo sapiens, UniProt Q9UBE8)
Method in brief: as §1

CDKL2 = CDKL2 (Homo sapiens, UniProt Q92772)
Method in brief: as §1

GSK3A = GSK3A (Homo sapiens, UniProt P49840)
Method in brief: as §1

AKT3 = AKT3 (Homo sapiens, UniProt Q9Y243)
Method in brief: as §1

HUNK = HUNK (Homo sapiens, UniProt P57058)
Method in brief: as §1

CDK9 = CDK9 (Homo sapiens, UniProt P50750)
Method in brief: as §1

DCAMKL1 = molecular target: T8, DCAMKL1 (Homo sapiens, UniProt O15075)
T8 construct: gene DCLK1
Method in brief: as §1

MYLK4 = MYLK4 (Homo sapiens, UniProt Q86YV6)
Method in brief: as §1

MRCKA = molecular target: T9, MRCKA (Homo sapiens, UniProt Q5VT25)
T9 construct: gene CDC42BPA
Method in brief: as §1

RIOK2 = RIOK2 (Homo sapiens, UniProt Q9BVS4)
Method in brief: as §1

HIPK4 = HIPK4 (Homo sapiens, UniProt Q8NE63)
Method in brief: as §1

CAMKK1 = CAMKK1 (Homo sapiens, UniProt Q8N5S9)
Method in brief: as §1

MEK5 = molecular target: T10, MEK5 (Homo sapiens, UniProt Q13163)
T10 construct: gene MAP2K5
Method in brief: as §1

EGFR(S752-I759del) = EGFR(S752-I759del) (Homo sapiens, UniProt P00533, DEL752-759)
Method in brief: as §1

CDK4-cyclinD1 = molecular target: T11, CDK4-cyclinD1 (Homo sapiens, UniProt P11802)
T11 construct: cyclinD1
Method in brief: as §1

MEK4 = molecular target: T12, MEK4 (Homo sapiens, UniProt P45985)
T12 construct: gene MAP2K4
Method in brief: as §1

T8 sequence (O15075 whole entry): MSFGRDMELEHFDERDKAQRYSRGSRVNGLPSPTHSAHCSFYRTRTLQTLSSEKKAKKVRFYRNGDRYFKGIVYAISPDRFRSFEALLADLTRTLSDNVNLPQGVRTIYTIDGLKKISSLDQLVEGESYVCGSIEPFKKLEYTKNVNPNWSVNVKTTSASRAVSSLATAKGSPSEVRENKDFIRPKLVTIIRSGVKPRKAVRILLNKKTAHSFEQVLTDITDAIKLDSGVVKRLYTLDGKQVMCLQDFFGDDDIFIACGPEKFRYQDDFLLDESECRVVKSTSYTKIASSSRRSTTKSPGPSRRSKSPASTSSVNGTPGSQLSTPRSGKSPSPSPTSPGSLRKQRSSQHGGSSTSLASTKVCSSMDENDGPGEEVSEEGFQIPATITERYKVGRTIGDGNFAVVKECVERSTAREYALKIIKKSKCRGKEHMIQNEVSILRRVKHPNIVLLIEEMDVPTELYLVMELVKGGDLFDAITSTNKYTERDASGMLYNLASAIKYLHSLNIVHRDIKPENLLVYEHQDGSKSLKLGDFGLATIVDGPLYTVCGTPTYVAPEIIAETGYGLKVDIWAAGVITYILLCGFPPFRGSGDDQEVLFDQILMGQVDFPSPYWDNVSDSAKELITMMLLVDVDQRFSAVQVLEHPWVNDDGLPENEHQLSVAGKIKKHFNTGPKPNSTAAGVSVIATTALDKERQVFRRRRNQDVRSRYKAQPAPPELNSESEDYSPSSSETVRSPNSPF
T4 sequence (P31152 whole entry): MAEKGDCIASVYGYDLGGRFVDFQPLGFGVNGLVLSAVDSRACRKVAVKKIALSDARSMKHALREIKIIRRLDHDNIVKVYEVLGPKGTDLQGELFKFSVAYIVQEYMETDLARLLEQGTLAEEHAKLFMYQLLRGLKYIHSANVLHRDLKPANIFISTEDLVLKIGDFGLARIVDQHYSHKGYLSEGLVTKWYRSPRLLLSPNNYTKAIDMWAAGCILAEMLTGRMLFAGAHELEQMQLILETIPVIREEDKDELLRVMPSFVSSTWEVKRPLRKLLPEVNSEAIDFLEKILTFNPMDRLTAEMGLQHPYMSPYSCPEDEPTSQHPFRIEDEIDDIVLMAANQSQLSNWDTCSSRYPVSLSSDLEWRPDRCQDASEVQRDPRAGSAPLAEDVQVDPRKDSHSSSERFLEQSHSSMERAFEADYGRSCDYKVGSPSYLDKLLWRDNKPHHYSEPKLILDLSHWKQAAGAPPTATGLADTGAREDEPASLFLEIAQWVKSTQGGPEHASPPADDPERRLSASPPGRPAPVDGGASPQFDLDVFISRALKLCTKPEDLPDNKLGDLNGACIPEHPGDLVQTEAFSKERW
Sequence of EGFR(S752-I759del) (P00533 with tags, fused parts or gaps DEL752-759): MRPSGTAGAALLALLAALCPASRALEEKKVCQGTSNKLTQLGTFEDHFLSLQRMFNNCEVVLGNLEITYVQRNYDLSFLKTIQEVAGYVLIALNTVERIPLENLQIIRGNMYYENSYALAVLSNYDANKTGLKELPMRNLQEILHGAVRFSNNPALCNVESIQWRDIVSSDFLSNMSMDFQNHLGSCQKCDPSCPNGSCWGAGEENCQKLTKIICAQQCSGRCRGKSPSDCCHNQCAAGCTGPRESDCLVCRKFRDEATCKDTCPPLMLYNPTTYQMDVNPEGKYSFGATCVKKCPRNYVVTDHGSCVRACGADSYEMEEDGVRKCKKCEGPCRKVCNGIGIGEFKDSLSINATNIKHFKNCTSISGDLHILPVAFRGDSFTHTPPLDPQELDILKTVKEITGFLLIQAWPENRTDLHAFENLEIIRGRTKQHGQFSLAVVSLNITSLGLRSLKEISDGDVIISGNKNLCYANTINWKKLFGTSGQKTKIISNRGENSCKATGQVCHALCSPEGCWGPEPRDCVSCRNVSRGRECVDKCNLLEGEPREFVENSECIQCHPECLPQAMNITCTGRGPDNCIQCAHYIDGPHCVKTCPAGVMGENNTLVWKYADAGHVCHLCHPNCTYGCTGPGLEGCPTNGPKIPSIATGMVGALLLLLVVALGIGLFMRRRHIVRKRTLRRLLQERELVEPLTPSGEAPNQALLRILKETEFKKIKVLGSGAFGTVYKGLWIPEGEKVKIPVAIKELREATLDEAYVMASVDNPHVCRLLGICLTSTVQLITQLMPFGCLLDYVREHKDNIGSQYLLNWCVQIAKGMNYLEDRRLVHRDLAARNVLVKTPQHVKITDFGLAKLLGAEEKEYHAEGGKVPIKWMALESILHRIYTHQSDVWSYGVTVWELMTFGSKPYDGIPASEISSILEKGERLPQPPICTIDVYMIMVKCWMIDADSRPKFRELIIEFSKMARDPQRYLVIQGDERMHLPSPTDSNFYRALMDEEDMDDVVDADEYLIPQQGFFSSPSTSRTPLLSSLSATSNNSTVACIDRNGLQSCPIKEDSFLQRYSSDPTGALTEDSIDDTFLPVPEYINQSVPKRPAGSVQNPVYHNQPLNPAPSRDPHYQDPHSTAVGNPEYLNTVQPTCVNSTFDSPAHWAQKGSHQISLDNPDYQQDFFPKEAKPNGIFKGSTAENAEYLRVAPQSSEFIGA
T7 sequence (O95382 whole entry): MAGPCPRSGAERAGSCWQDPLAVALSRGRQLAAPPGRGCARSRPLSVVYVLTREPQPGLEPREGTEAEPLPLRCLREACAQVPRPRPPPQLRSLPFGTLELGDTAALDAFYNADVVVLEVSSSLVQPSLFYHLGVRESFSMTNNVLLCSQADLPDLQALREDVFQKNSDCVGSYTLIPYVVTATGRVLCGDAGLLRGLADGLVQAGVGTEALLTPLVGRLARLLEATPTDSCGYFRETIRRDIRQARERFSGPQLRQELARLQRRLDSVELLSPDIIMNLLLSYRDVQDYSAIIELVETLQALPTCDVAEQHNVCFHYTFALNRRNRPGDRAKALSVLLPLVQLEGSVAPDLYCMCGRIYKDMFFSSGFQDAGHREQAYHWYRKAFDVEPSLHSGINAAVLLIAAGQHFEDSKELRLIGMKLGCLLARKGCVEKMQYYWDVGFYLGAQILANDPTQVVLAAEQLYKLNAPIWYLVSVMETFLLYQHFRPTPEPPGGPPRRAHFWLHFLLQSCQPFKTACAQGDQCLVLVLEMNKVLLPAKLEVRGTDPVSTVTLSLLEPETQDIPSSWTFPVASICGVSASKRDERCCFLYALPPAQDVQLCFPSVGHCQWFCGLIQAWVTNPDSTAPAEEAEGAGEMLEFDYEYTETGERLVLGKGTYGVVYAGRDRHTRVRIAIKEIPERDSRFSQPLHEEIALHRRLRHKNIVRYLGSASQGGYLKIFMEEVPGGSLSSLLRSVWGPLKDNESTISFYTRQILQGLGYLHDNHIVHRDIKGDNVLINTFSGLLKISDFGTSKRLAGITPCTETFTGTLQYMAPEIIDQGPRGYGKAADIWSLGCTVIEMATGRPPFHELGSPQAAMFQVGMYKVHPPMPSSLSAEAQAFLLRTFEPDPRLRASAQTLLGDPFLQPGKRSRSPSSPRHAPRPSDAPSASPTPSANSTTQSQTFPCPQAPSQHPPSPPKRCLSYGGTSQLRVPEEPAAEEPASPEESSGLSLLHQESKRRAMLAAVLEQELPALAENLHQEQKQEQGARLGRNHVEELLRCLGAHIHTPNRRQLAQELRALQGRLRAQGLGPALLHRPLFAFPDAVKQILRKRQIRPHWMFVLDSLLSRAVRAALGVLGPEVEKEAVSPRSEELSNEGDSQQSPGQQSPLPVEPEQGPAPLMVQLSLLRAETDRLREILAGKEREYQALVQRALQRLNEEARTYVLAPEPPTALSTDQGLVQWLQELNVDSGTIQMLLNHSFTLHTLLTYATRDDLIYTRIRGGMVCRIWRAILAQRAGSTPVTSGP
Sequence of LIMK2 (P53671 whole entry): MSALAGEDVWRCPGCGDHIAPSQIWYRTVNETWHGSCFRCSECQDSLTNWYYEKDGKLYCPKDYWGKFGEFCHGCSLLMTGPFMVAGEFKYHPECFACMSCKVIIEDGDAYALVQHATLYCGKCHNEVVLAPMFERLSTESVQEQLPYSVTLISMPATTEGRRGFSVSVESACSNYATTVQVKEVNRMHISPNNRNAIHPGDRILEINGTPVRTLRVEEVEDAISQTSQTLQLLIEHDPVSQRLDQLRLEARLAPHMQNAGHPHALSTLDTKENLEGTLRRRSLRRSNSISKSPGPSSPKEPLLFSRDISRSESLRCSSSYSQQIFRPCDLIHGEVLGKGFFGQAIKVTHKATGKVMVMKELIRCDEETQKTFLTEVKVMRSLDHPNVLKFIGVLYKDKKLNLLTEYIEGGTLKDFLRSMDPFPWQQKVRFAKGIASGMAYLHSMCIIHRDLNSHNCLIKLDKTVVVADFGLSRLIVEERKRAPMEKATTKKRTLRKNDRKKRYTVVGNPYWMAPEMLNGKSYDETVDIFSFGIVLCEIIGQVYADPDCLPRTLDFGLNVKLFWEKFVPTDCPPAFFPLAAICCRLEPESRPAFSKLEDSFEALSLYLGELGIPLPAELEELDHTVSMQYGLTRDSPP
Sequence of TESK1 (Q15569 whole entry): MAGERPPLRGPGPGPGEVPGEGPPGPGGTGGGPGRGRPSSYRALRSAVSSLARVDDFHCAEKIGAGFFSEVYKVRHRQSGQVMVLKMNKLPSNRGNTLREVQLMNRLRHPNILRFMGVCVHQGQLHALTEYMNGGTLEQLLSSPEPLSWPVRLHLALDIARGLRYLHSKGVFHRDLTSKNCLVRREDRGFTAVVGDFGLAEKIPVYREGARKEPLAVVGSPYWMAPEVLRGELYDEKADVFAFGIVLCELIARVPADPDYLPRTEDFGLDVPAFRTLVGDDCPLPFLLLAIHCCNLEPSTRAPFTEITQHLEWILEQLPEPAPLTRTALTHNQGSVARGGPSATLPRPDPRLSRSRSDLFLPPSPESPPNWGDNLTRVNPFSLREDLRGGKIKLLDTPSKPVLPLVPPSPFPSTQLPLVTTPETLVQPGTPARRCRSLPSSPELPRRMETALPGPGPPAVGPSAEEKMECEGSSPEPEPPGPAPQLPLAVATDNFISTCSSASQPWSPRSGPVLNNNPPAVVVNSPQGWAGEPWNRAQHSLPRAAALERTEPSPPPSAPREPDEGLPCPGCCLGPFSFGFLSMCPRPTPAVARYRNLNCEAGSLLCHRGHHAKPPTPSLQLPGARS

For `[O-][S@@+](Cc1cncs1)C(c1ccccc1)c1ccccc1` [S-CE-123, (S)-5-((Benzhydrylsulfinyl)Methyl)Thiazole], the remaining binding at 2.8 µM (BRK) was 96%, the remaining binding at 2.8 µM (MEK2) was 93% and the remaining binding at 2.8 µM (MARK1) was 93%. It also gave a remaining binding at 2.8 µM (ABL1-phosphorylated) of 100%, a remaining binding at 2.8 µM (TESK1) of 96% and a remaining binding at 2.8 µM (LIMK2) of 88%. It also gave a remaining binding at 2.8 µM (ERK4) of 100%, a remaining binding at 2.8 µM (PRKR) of 93% and a remaining binding at 2.8 µM (PKAC-beta) of 100%. The remaining binding at 2.8 µM (ASK2) was 100%, the remaining binding at 2.8 µM (NLK) was 97% and the remaining binding at 2.8 µM (CDKL2) was 89%. It also gave a remaining binding at 2.8 µM (GSK3A) of 99%, a remaining binding at 2.8 µM (AKT3) of 99% and a remaining binding at 2.8 µM (HUNK) of 100%. The remaining binding at 2.8 µM (CDK9) was 92%, the remaining binding at 2.8 µM (DCAMKL1) was 100% and the remaining binding at 2.8 µM (MYLK4) was 89%. The remaining binding at 2.8 µM (MRCKA) was 95%, the remaining binding at 2.8 µM (RIOK2) was 99% and the remaining binding at 2.8 µM (HIPK4) was 100%. It also gave a remaining binding at 2.8 µM (CAMKK1) of 95%, a remaining binding at 2.8 µM (MEK5) of 98% and a remaining binding at 2.8 µM (EGFR(S752-I759del)) of 66%. The remaining binding at 2.8 µM (CDK4-cyclinD1) was 100% and the remaining binding at 2.8 µM (MEK4) was 100%.
